Literature values as cited in US5122371A (priority 1991, dated 1992).

Columns and labels:
[1] = test system: Na+ K+-ATPase enzyme; details: known property of cardiac glycosides
[2] = in vivo

Molecule	Effect on Na+ K+-ATPase enzyme activity [1]	half-life [2] [h]
C[C@H]1O[C@@H](O[C@H]2[C@@H](O)C[C@H](O[C@H]3[C@@H](O)C[C@H](O[C@H]4CC[C@@]5(C)[C@H](CC[C@@H]6[C@@H]5C[C@@H](O)[C@]5(C)[C@@H](C7=CC(=O)OC7)CC[C@]65O)C4)O[C@@H]3C)O[C@@H]2C)C[C@H](O)[C@@H]1O [digoxin]	inhibit	–
C[C@@H]1O[C@@H](O[C@H]2C[C@@H](O)[C@]3(CO)[C@H]4[C@H](O)C[C@]5(C)[C@@H](C6=CC(=O)OC6)CC[C@]5(O)[C@@H]4CC[C@]3(O)C2)[C@H](O)[C@H](O)[C@H]1O [ouabain]	inhibit	21
digitalis	inhibit	–
